Tested on: subjects with schizophrenia
Test: Change in PANSS total score by rs6435681 (ErbB4) genotype, pooled paliperidone arms of clinical trial Nos. 1-4
Assay type: in vivo, human
Conditions: trials 1-4; for mean reduction in PANSS total score: baseline to end of study
Experimental: The paliperidone treated arms of clinical trial Nos. 1-4, were pooled and examined for genetic association. The trial Nos. 1-3 were paliperidone ER phase III studies and trial No. 4 was a paliperidone palmitate phase II/III study. To confirm results of the initial genetic association, additional paliperidone treated cohorts, including paliperidone palmitate phase III clinical trial Nos 5-8 and paliperidone ER phase III/IV trial Nos. 9 and 10 were evaluated. The results were further examined with the placebo arms of trial Nos. 1-4 and 6-10, the olanzapine arms of trial Nos. 1-3 and 11, the quetiapine arm of trial No. 9, and the Risperdal Consta arm of the trials No. 5 and 11.
Trial Nos. 1 to 3 were randomized, double-blind, placebo and active controlled phase III trials that were designed to evaluate efficacy and safety of paliperidone-ER in the acute treatment of subjects with schizophrenia. Schizophrenic patients experiencing active symptoms, with Positive and Negative […] (PANSS) score=70-120, were enrolled and randomized to different treatment groups. The patients received paliperidone-ER of 3 mg, 6 mg, 9 mg, 12 mg, or 15 mg, olanzapine of 10 mg or placebo tablet once daily for 6 weeks. Primary efficacy variable/Primary Time point was changed in the total PANSS score from baseline to endpoint. The baseline value was the measurement from the last visit prior to or including the first day of dosing with double-blind study medication, and the endpoint value was the measurement at the end of the double-blind phase or the last post-baseline observation during the double-blind phase. Detailed clinical study design and outcomes of trial Nos. 1-3 were described elsewhere (Marder et al., Biol Psychiatry. 2007, 62:1363-70; Davidson et al., Schizophr Res. 2007, 93:117-30; Kane et al., Schizophr Res. 2007, 90:147-61. Epub).
Trial No. 4 was a randomized, double-blind, placebo-controlled phase II/III study to evaluate the efficacy and safety of long-acting injections of paliperidone palmitate at fixed doses of 50 and 100 mg equivalent in subjects with schizophrenia. Subjects were required to have a total PANSS score between 70 and 120 at Screening and between 60 and 120 on Day 1 prior to the start of double-blind treatment. The primary efficacy variable was the change in total PANSS score from the start of the double-blinded treatment period to the last post-randomization assessment in the double-blinded treatment period.
DNA collected from subjects who consented to the optional pharmacogenomic component of the above clinical trials were analyzed in the genetic study. Briefly, blood samples were collected from subjects and extracted for genomic DNA. […]

SMILES: Cc1nc2n(c(=O)c1CCN1CCC(c3noc4cc(F)ccc34)CC1)CCCC2O (stereo not shown) [Paliperidone]
- mean reduction in PANSS total score (patients with AA genotype at rs6435681 (N=25)): 0.6
- patients displaying a 30% or higher reduction in PANSS total score from baseline (patients with AA genotype): 8%
- mean reduction in PANSS total score (patients with GG or GA genotype at rs6435681 (N=659)): 17.8
- patients displaying a 30% or higher reduction in PANSS total score from baseline (patients with GG/GA genotype): Twenty-nine

From patent US20100144781A1, “METHODS OF TREATING PSYCHOSIS AND SCHIZOPHRENIA BASED ON POLYMORPHISMS IN THE ERBB4 GENE” (priority 2008, published 2010)
